What was measured:
Russian thistle = assay: Test C preemergence; assay type: in vivo, Salsola kali; conditions: for Russian Thistle plant response rating: preemergence, scale 0 (no effect) to 100 (complete control); for Plant response rating, Russian Thistle: Preemergence, 31 g ai/ha, scale 0 to 100, 0 no effect, 100 complete control
Excerpt: Seeds of plant species selected from blackgrass (Alopecurus myosuroides), Italian ryegrass (Lolium multiflorum), wheat, winter (winter wheat, Triticum aestivum), galium (catchweed bedstraw, Galium aparine), corn (Zea mays), large (Lg) crabgrass (Digitaria sanguinalis), giant foxtail (Setaria faberii), johnsongrass (Sorghum halepense), lambsquarters (Chenopodium album), morningglory (Ipomoea coccinea), yellow nutsedge (Cyperus esculentus), pigweed (Amaranthus retroflexus), ragweed (common ragweed, Ambrosia elatior), soybean (Glycine max), barnyardgrass (Echinochloa crus-galli), oilseed rape (Brassica napus), waterhemp (common waterhemp, Amaranthus rudis), kochia (Kochia scoparia), wild oat (Avena fatua), surinam grass (Brachiaria decumbens), foxtail, green (green foxtail, Setaria viridis), goosegrass (Eleusine indica), bromegrass, downy (downy bromegrass, Bromus tectorum), nightshade (eastern black nightshade, Solanum ptycanthum), cocklebur (common cocklebur, Xanthium strumarium), cupgrass, woolly (woolly cupgrass, Eriochloa villosa), bermudagrass (Cynodon dactylon), sunflower, (common oilseed sunflower, Helianthus annuus), Russian thistle (Salsola kali), and velvetleaf (Abutilon theophrasti) were planted into a blend of loam soil and sand and treated preemergence with test chemicals formulated in a non-phytotoxic solvent mixture which included a surfactant.
At the same time, plants selected from these crop and weed species and also barley, winter (winter barley, Hordeum vulgare), windgrass (Apera spica-venti), chickweed (common chickweed, Stellaria media), deadnettle (henbit deadnettle, Lamium amplexicaule), and canarygrass (littleseed canarygrass, Phalaris minor) were planted in pots containing Redi-Earth® planting medium (Scotts Company, 14111 Scottslawn Road, Marysville, Ohio 43041) comprising spaghnum peat moss, vermiculite, wetting agent and starter nutrients and treated with postemergence applications of test chemicals formulated in the same manner. Plants ranged in height from 2 to 18 cm (1- to 4-leaf stage) for postemergence treatments. Treated plants and controls were maintained in a greenhouse for 13 to 15 days, after which time all species were compared to controls and visually evaluated. Plant response ratings, summarized in Table C, are based on a scale of 0 to 100 where 0 is no effect and 100 is complete control. A dash (-) response means no test result.

redstem = assay: Test G flood (paddy water application); assay type: in vivo, Ammannia coccinea; conditions: after 21 days, scale 0 to 100, 0 no effect, 100 complete control
Excerpt: (§1) Three plastic pots (ca. 16-cm diameter) per rate were partially filled with sterilized Tama silt loam soil comprising a 35:50:15 ratio of sand, silt and clay and 2.6% organic matter. Separate plantings for each of the three pots were as follows. Seeds from the U.S. of monochoria (Monochoria vaginalis), sedge, umbrella (small-flower umbrella sedge, Cyperus difformis), hardstem bulrush (Scirpus juncoides), and redstem (purple redstem, Ammannia coccinea), were planted into one 16-cm pot for each rate. Seeds from the U.S. of rice flatsedge (Cyperus iria), bearded sprangletop (Leptochloa fascicularis), one stand of 9 or 10 water seeded rice seedlings (Oryza sativa cv. ‘Japonica—M202’), and two stands of 3 or 4 transplanted rice seedlings (Oryza sativa cv. ‘Japonica—M202’) were planted into one 16-cm pot for each rate. Seeds from the U.S. of barnyardgrass (Echinochloa crus-galli), and late watergrass (Echinochloa oryzicola) were planted into one 16-cm pot for each rate. Plantings were sequential so that crop and weed species were at the 2.0 to 2.5-leaf stage at time of treatment.
(§2) Potted plants were grown in a greenhouse with day/night temperature settings of 30/27° C., and supplemental balanced lighting was provided to maintain a 16-hour photoperiod. Test pots were maintained in the greenhouse until test completion.
(§3) At time of treatment, test pots were flooded to 3 cm above the soil surface, treated by application of test compounds directly to the paddy water, and then maintained at that water depth for the duration of the test. Effects of treatments on rice and weeds were visually evaluated by comparison to untreated controls after 21 days. Plant response ratings, summarized in Table G, are based on a scale of 0 to 100 where 0 is no effect and 100 is complete control. A dash (-) response means no test result.

hardstem bulrush = assay: Test G flood (paddy water application); assay type: in vivo, Scirpus juncoides; conditions: after 21 days, scale 0 to 100, 0 no effect, 100 complete control
Excerpt: as §1, §2, §3

rice flatsedge = assay: Test G flood (paddy water application); assay type: in vivo, Cyperus iria; conditions: after 21 days, scale 0 to 100, 0 no effect, 100 complete control
Excerpt: as §1, §2, §3

monochoria = assay: Test G flood (paddy water application); assay type: in vivo, Monochoria vaginalis; conditions: after 21 days, scale 0 to 100, 0 no effect, 100 complete control
Excerpt: as §1, §2, §3

[1] = system: transplanted rice seedlings; assay: Test G flood (paddy water application); assay type: in vivo, Oryza sativa cv. ‘Japonica—M202’; conditions: after 21 days, scale 0 to 100, 0 no effect, 100 complete control
Excerpt: as §1, §2, §3

[2] = system: water seeded rice seedlings; assay: Test G flood (paddy water application); assay type: in vivo, Oryza sativa cv. ‘Japonica—M202’; conditions: after 21 days, scale 0 to 100, 0 no effect, 100 complete control
Excerpt: as §1, §2, §3

bearded sprangletop = assay: Test G flood (paddy water application); assay type: in vivo, Leptochloa fascicularis; conditions: after 21 days, scale 0 to 100, 0 no effect, 100 complete control
Excerpt: as §1, §2, §3

sedge, umbrella = assay: Test G flood (paddy water application); assay type: in vivo, Cyperus difformis; conditions: after 21 days, scale 0 to 100, 0 no effect, 100 complete control
Excerpt: as §1, §2, §3

late watergrass = assay: Test G flood (paddy water application); assay type: in vivo, Echinochloa oryzicola; conditions: after 21 days, scale 0 to 100, 0 no effect, 100 complete control
Excerpt: as §1, §2, §3

barnyardgrass = assay: Test G flood (paddy water application); assay type: in vivo, Echinochloa crus-galli; conditions: after 21 days, scale 0 to 100, 0 no effect, 100 complete control
Excerpt: as §1, §2, §3

In the case of `FC(F)(F)c1cnn(-c2ccccc2Oc2ncc(Cl)cn2)c1` [Compound 16], the “Russian Thistle plant response rating” value (Russian thistle; 62 g ai/ha) is reported as 80, the “Russian Thistle plant response rating” value (Russian thistle; 125 g ai/ha) is reported as 90 and the “Russian Thistle plant response rating” value (Russian thistle; 250 g ai/ha) is reported as 90. For the same molecule, the “Plant response rating, Russian Thistle” value (Russian thistle) was 0, the “Plant response rating, Redstem” value (redstem; 32 g ai/ha) was 0 and the “Plant response rating, Redstem” value (redstem; 64 g ai/ha) was 60. The “Plant response rating, Redstem” value (redstem; 125 g ai/ha) was 85, the “Plant response rating, Redstem” value (redstem; 250 g ai/ha) was 95 and the “Plant response rating, Bulrush, Hardstem” value (hardstem bulrush; 32 g ai/ha) was 40. The “Plant response rating, Bulrush, Hardstem” value (hardstem bulrush; 64 g ai/ha) was 50, the “Plant response rating, Bulrush, Hardstem” value (hardstem bulrush; 125 g ai/ha) was 65 and the “Plant response rating, Bulrush, Hardstem” value (hardstem bulrush; 250 g ai/ha) was 80. For the same molecule, the “Plant response rating, Flatsedge, Rice” value (rice flatsedge; 32 g ai/ha) was 40, the “Plant response rating, Flatsedge, Rice” value (rice flatsedge; 64 g ai/ha) was 85 and the “Plant response rating, Flatsedge, Rice” value (rice flatsedge; 125 g ai/ha) was 100. For the same molecule, the “Plant response rating, Flatsedge, Rice” value (rice flatsedge; 250 g ai/ha) was 100, the “Plant response rating, Monochoria” value (monochoria; 32 g ai/ha) was 95 and the “Plant response rating, Monochoria” value (monochoria; 64 g ai/ha) was 95. The “Plant response rating, Monochoria” value (monochoria; 125 g ai/ha) was 100, the “Plant response rating, Monochoria” value (monochoria; 250 g ai/ha) was 100 and the “Plant response rating, Rice, Transplanted” value ([1]; 32 g ai/ha) was 0. For the same molecule, the “Plant response rating, Rice, Water Seeded” value ([2]; 32 g ai/ha) was 50, the “Plant response rating, Rice, Water Seeded” value ([2]; 64 g ai/ha) was 90 and the “Plant response rating, Rice, Water Seeded” value ([2]; 125 g ai/ha) was 100. For the same molecule, the “Plant response rating, Rice, Water Seeded” value ([2]; 250 g ai/ha) was 100, the “Plant response rating, Sprangletop, Brdd.” value (bearded sprangletop; 32 g ai/ha) was 65 and the “Plant response rating, Sprangletop, Brdd.” value (bearded sprangletop; 64 g ai/ha) was 100. The “Plant response rating, Sprangletop, Brdd.” value (bearded sprangletop; 125 g ai/ha) was 100, the “Plant response rating, Sprangletop, Brdd.” value (bearded sprangletop; 250 g ai/ha) was 100 and the “Plant response rating, Sedge, Umbrella” value (sedge, umbrella; 32 g ai/ha) was 0. The “Plant response rating, Sedge, Umbrella” value (sedge, umbrella; 64 g ai/ha) was 60, the “Plant response rating, Sedge, Umbrella” value (sedge, umbrella; 125 g ai/ha) was 100 and the “Plant response rating, Sedge, Umbrella” value (sedge, umbrella; 250 g ai/ha) was 100. For the same molecule, the “Plant response rating, Watergrass, Late” value (late watergrass; 32 g ai/ha) was 0, the “Plant response rating, Watergrass, Late” value (late watergrass; 64 g ai/ha) was 0 and the “Plant response rating, Watergrass, Late” value (late watergrass; 125 g ai/ha) was 0. The “Plant response rating, Watergrass, Late” value (late watergrass; 250 g ai/ha) was 80, the “Plant response rating, Barnyardgrass” value (barnyardgrass; 32 g ai/ha) was 0 and the “Plant response rating, Barnyardgrass” value (barnyardgrass; 64 g ai/ha) was 40. For the same molecule, the “Plant response rating, Barnyardgrass” value (barnyardgrass; 125 g ai/ha) was 100 and the “Plant response rating, Barnyardgrass” value (barnyardgrass; 250 g ai/ha) was 100.

With `FC(F)(F)c1cnn(-c2ccccc2Oc2ncc(Br)cn2)c1` [Compound 18, 5-bromo-2-[2-[4-(trifluoromethyl)-1H-pyrazol-1-yl]phenoxy]pyrimidine] the “Russian Thistle plant response rating” value (Russian thistle; 62 g ai/ha) was 0, the “Russian Thistle plant response rating” value (Russian thistle; 125 g ai/ha) was 95 and the “Russian Thistle plant response rating” value (Russian thistle; 250 g ai/ha) was 95. For the same molecule, the “Plant response rating, Russian Thistle” value (Russian thistle) was 0, the “Plant response rating, Redstem” value (redstem; 32 g ai/ha) was 0 and the “Plant response rating, Redstem” value (redstem; 64 g ai/ha) was 0. For the same molecule, the “Plant response rating, Redstem” value (redstem; 125 g ai/ha) was 75, the “Plant response rating, Redstem” value (redstem; 250 g ai/ha) was 90 and the “Plant response rating, Bulrush, Hardstem” value (hardstem bulrush; 32 g ai/ha) was 0. For the same molecule, the “Plant response rating, Bulrush, Hardstem” value (hardstem bulrush; 64 g ai/ha) was 0, the “Plant response rating, Bulrush, Hardstem” value (hardstem bulrush; 125 g ai/ha) was 0 and the “Plant response rating, Bulrush, Hardstem” value (hardstem bulrush; 250 g ai/ha) was 85. For the same molecule, the “Plant response rating, Flatsedge, Rice” value (rice flatsedge; 32 g ai/ha) was 30, the “Plant response rating, Flatsedge, Rice” value (rice flatsedge; 64 g ai/ha) was 75 and the “Plant response rating, Flatsedge, Rice” value (rice flatsedge; 125 g ai/ha) was 100. For the same molecule, the “Plant response rating, Flatsedge, Rice” value (rice flatsedge; 250 g ai/ha) was 100, the “Plant response rating, Monochoria” value (monochoria; 32 g ai/ha) was 95 and the “Plant response rating, Monochoria” value (monochoria; 64 g ai/ha) was 95. The “Plant response rating, Monochoria” value (monochoria; 125 g ai/ha) was 100, the “Plant response rating, Monochoria” value (monochoria; 250 g ai/ha) was 100 and the “Plant response rating, Rice, Transplanted” value ([1]; 125 g ai/ha) was 15. For the same molecule, the “Plant response rating, Rice, Transplanted” value ([1]; 250 g ai/ha) was 20, the “Plant response rating, Rice, Water Seeded” value ([2]; 64 g ai/ha) was 60 and the “Plant response rating, Rice, Water Seeded” value ([2]; 125 g ai/ha) was 90. The “Plant response rating, Rice, Water Seeded” value ([2]; 250 g ai/ha) was 100, the “Plant response rating, Sprangletop, Brdd.” value (bearded sprangletop; 32 g ai/ha) was 70 and the “Plant response rating, Sprangletop, Brdd.” value (bearded sprangletop; 64 g ai/ha) was 80. The “Plant response rating, Sprangletop, Brdd.” value (bearded sprangletop; 125 g ai/ha) was 90, the “Plant response rating, Sprangletop, Brdd.” value (bearded sprangletop; 250 g ai/ha) was 100 and the “Plant response rating, Sedge, Umbrella” value (sedge, umbrella; 32 g ai/ha) was 0. The “Plant response rating, Sedge, Umbrella” value (sedge, umbrella; 64 g ai/ha) was 20, the “Plant response rating, Sedge, Umbrella” value (sedge, umbrella; 125 g ai/ha) was 35 and the “Plant response rating, Sedge, Umbrella” value (sedge, umbrella; 250 g ai/ha) was 100. For the same molecule, the “Plant response rating, Watergrass, Late” value (late watergrass; 32 g ai/ha) was 0, the “Plant response rating, Watergrass, Late” value (late watergrass; 64 g ai/ha) was 0 and the “Plant response rating, Watergrass, Late” value (late watergrass; 125 g ai/ha) was 0. The “Plant response rating, Watergrass, Late” value (late watergrass; 250 g ai/ha) was 70, the “Plant response rating, Barnyardgrass” value (barnyardgrass; 32 g ai/ha) was 0 and the “Plant response rating, Barnyardgrass” value (barnyardgrass; 64 g ai/ha) was 20. For the same molecule, the “Plant response rating, Barnyardgrass” value (barnyardgrass; 125 g ai/ha) was 35 and the “Plant response rating, Barnyardgrass” value (barnyardgrass; 250 g ai/ha) was 100.

Source: patent US9695155B2, “Herbicidal substituted pyrimidinyloxy benzene compounds” (E. I. DU PONT DE NEMOURS AND COMPANY, priority 2013, dated 2017)
